How the values were obtained:
[1] = target: T1, protein disulfide isomerase A1 (PDIA1) (Homo sapiens, UniProt P07237); experiment: insulin reductase (insulin aggregation) assay; format: biochemical; conditions: covalent; a-site C53
T1 construct: gene P4HB; full-length PDIA1 overexpressed in HEK293T (anti-myc detected) for labelling, also endogenous

[2] = target: T1, protein disulfide isomerase A1 (PDIA1); experiment: in-gel fluorescence after CuAAC, SKOV-3 wildtype versus PDIA1 knockout and HEK293T overexpression; format: cell-based; conditions: 500 nM, 1 h

T1 sequence (P07237 18-508): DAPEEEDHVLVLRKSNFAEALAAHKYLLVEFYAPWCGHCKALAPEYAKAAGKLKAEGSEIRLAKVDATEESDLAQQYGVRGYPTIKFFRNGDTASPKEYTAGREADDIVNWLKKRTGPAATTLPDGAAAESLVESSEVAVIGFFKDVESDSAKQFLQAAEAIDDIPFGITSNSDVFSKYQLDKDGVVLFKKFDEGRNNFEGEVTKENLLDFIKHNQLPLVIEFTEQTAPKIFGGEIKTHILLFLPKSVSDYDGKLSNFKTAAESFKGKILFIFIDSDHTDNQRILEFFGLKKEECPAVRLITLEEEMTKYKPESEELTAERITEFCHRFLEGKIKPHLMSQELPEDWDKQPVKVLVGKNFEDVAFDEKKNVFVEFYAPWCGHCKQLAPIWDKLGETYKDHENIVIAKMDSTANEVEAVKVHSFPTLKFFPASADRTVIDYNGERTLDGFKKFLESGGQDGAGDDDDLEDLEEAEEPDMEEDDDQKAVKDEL

SMILES: C#CCN(CCNC(=O)C1(N(CC=C)C(=O)c2ccc(Cl)cc2)CCN(Cc2ccccc2)CC1)C(=O)CCl [4a, FFSMP 4a]
- inhibition of PDIA1 activity [1]: FFSMP 4a was shown to inhibit PDIA1 at low μM concentrations
- covalent labelling [2]: confirming PDIA1 as a predominant protein target of biologically active FFSMP 4a
